This assay concerns Rabbit polyclonal antibody #10930. As to the kind of experiment: Specificity of the immunoassay (cross-reactivity of antibody with other antiepileptic drugs). Format: binding. The settings on record: assayed in duplicate, Cobas Mira. The source says: Antibodies obtained using any of the disclosed techniques are screened or purified not only for their ability to react with gabapentin, but for a low cross-reactivity with potential interfering substances. “Cross-reactivity” may be determined in a quantitative immunoassay by establishing a standard curve using known dilutions of the target analyte, gabapentin. The standard curve is then used to calculate the apparent concentration of the interfering substance present in various known amounts in samples assayed under similar condition. The cross-reactivity is the apparent concentration divided by the actual concentration multiplied by 100. An exemplary immunoassay for determining cross-reactivity is a homogeneous enzyme immunoassay using a wild type G6PDH as described in U.S. Pat. No. 3,817,837 or mutant G6PDH engineered to contain a cysteine per subunit as described in U.S. Pat. Nos. 6,033,890, 6,090,567 and 6,455,288. Furthermore, the cross-reactivity can be determined in the same type of immunoassay in which the antibody will ultimately be used.
The gabapentin antibodies and enzyme conjugates may be advantageously used in a homogeneous assay format to detect gabapentin in samples. An analyzer (instrument) useful to set up the assay is Roche Cobas Mira (Roche Diagnostics). Gabapentin containing sample is incubated with antibody reagent followed by the addition of the enzyme conjugate reagent. The enzyme conjugate activity decreases upon binding to the antibody. The enzyme conjugate, which is not bound to the antibody, catalyzes the oxidation of glucose 6-phosphate (G6P). The oxidation of G6P is coupled with the reduction of NAD^+ to NADH, which can be measured at 340 nm. The change in the absorbance at 340 nm can be measured spectrophotometrically. The gabapentin concentration in a specimen can be measured in terms of G6PDH activity. The increase in the rate at 340 nm is due to the formation of NADH and is proportional to the enzyme conjugate activity. An assay curve is generated (FIG. 6) using gabapentin spiked into negative calibrator matrix. The assay rate increases with increasing the concentration of free drug in the sample.
The specificity of the immunoassay was evaluated by adding potentially crossreactant drugs to human serum and determining the increase in the apparent concentration as a result of the presence of crossreactant. Separate stock solutions of gabapentin were prepared by dissolving the drug in methanol to give a stock solution of 1000 μg/mL. […] Each sample was assayed in duplicate. Testing was performed on the Cobas Mira Analyzer®. The percentage concentration above 5 μg/mL of gabapentin was calculated for each crossreactant.

Where [1] appears, read: AED at 100 μg/mL in human serum.

Molecules are shown by their SMILES.

As for `NC(=O)N1c2ccccc2C=Cc2ccccc21` [Carbamazepine], the “Percent Increase in Apparent Gabapentin” value under setting [1] came out at 0%.

Take `Nc1nnc(-c2cccc(Cl)c2Cl)c(N)n1` [Lamotrigine]: the “Percent Increase in Apparent Gabapentin” value under setting [1] is 0%.

Regarding `CC[C@@H](C(N)=O)N1CCCC1=O` [Levetiracetam], the “Percent Increase in Apparent Gabapentin” value under setting [1] was 0%.

In the case of `CCCC(CCC)C(=O)O` [Valproic Acid], the “Percent Increase in Apparent Gabapentin” value under setting [1] was determined as 0%.

On to `NS(=O)(=O)Cc1noc2ccccc12` [Zonisamide], for which the “Percent Increase in Apparent Gabapentin” value (AED at 50 μg/mL in human serum) came to 0%.

The values are drawn from patent US11525835B2, “Compounds and methods for use in detecting gabapentin” (Ark Diagnostics, Inc., priority 2007, dated 2022).
